# Measurements as given in US5811408A, “2'-deoxy-2'-(substituted or unsubstituted)methylidene-4'-thionucleosides” (Yamasa Corporation, priority 1994, dated 1998).
# How the values were obtained:
# [1] = system: NUGC-4; assay: Proliferation Inhibitory Activity on Cultured Cells (in vitro test, MTT), NUGC-4; format: cell-based; settings: Homo sapiens; NUGC-4, Stomach adenocarcinoma; 72 hours, 37° C.
# Protocol: (§1) Proliferation Inhibitory Activity on Cultured Cells (in vitro test)
# (§2) Cells in the logarithmic growth phase were suspended in a medium for inoculation, and seeded into each well of a 96-well plate so that the number of the cells would be 3×10^3 /180 microliters/well. To each well was added 20 microliters of a sample solution or water, and incubation was carried out at 37° C. for 72 hours. After incubation, 25 microliters of an MTT solution (2 mg/ml, prepared in PBS) was added, and incubation was further conducted at 37° C. for 4 hours. The medium was removed, and the MTT-formazane formed was dissolved in 200 microliters of dimethyl sulfoxide. The absorbance at 540 nm of this solution was measured by a microplate reader. The proliferation inhibitory rate obtained by calculation was plotted on a graph paper against the concentration of the sample. Then, the 50% inhibitory concentration (IC50) was determined for evaluation of the antitumor effect.
# (§3) The results of the test carried out by using the compound of the present invention (the beta-anomer of 2'-deoxy-2'-methylidene-4'-thiocytidine synthesized in Example 1) are shown in Table 1.
# [2] = system: KKLS; assay: Proliferation Inhibitory Activity on Cultured Cells (in vitro test, MTT), KKLS; format: cell-based; settings: Stomach adenocarcinoma, 72 hours, 37° C.
# Protocol: as §1, §2, §3
# [3] = system: Colo320DM; assay: Proliferation Inhibitory Activity on Cultured Cells (in vitro test, MTT), Colo320DM; format: cell-based; settings: Homo sapiens, COLO 320DM, Colon adenocarcinoma, 72 hours, 37° C.
# Protocol: as §1, §2, §3
# [4] = system: HCT-15; assay: Proliferation Inhibitory Activity on Cultured Cells (in vitro test, MTT), HCT-15; format: cell-based; settings: Homo sapiens; HCT-15, Colon adenocarcinoma; 72 hours, 37° C.
# Protocol: as §1, §2, §3
# [5] = system: Mia-PaCa-2; assay: Proliferation Inhibitory Activity on Cultured Cells (in vitro test, MTT), Mia-PaCa-2; format: cell-based; settings: Homo sapiens; Mia-PaCa-2, Pancreas carcinoma; 72 hours, 37° C.
# Protocol: as §1, §2, §3
# [6] = system: PC-10; assay: Proliferation Inhibitory Activity on Cultured Cells (in vitro test, MTT), PC-10; format: cell-based; settings: Homo sapiens, PC10; PC-10, Lung squamous cell carcinoma; 72 hours, 37° C.
# Protocol: as §1, §2, §3
# [7] = system: Lu-65; assay: Proliferation Inhibitory Activity on Cultured Cells (in vitro test, MTT), Lu-65; format: cell-based; settings: Homo sapiens; Lu-65, Large cell lung carcinoma; 72 hours, 37° C.
# Protocol: as §1, §2, §3
# [8] = system: QG-90; assay: Proliferation Inhibitory Activity on Cultured Cells (in vitro test, MTT), QG-90; format: cell-based; settings: Homo sapiens; QG-90, Small cell lung carcinoma; 72 hours, 37° C.
# Protocol: as §1, §2, §3
# [9] = system: QG-96; assay: Proliferation Inhibitory Activity on Cultured Cells (in vitro test, MTT), QG-96; format: cell-based; settings: QG-96, Small cell lung carcinoma; 72 hours, 37° C.
# Protocol: as §1, §2, §3
# [10] = system: MCF-7; assay: Proliferation Inhibitory Activity on Cultured Cells (in vitro test, MTT), MCF-7; format: cell-based; settings: Homo sapiens, MCF7; MCF-7, Breast carcinoma; 72 hours, 37° C.
# Protocol: as §1, §2, §3
# [11] = system: KK-47; assay: Proliferation Inhibitory Activity on Cultured Cells (in vitro test, MTT), KK-47; format: cell-based; settings: Homo sapiens; KK-47, Bladder carcinoma; 72 hours, 37° C.
# Protocol: as §1, §2, §3
# [12] = system: HOS; assay: Proliferation Inhibitory Activity on Cultured Cells (in vitro test, MTT), HOS; format: cell-based; settings: Homo sapiens, Osteosarcoma, 72 hours, 37° C.
# Protocol: as §1, §2, §3
# [13] = system: MG-63; assay: Proliferation Inhibitory Activity on Cultured Cells (in vitro test, MTT), MG-63; format: cell-based; settings: Homo sapiens; MG-63, Osteosarcoma; 72 hours, 37° C.
# Protocol: as §1, §2, §3
# [14] = system: HEp-2; assay: Proliferation Inhibitory Activity on Cultured Cells (in vitro test, MTT), HEp-2; format: cell-based; settings: Homo sapiens; HEp-2, Esophagus carcinoma; 72 hours, 37° C.
# Protocol: as §1, §2, §3
# [15] = system: A375; assay: Proliferation Inhibitory Activity on Cultured Cells (in vitro test, MTT), A375; format: cell-based; settings: Homo sapiens, A-375; A375, Melanoma; 72 hours, 37° C.
# Protocol: as §1, §2, §3
# [16] = system: SK-Mel-28; assay: Proliferation Inhibitory Activity on Cultured Cells (in vitro test, MTT), SK-Mel-28; format: cell-based; settings: Homo sapiens; SK-Mel-28, Melanoma; 72 hours, 37° C.
# Protocol: as §1, §2, §3
# [17] = system: HT1080; assay: Proliferation Inhibitory Activity on Cultured Cells (in vitro test, MTT), HT1080; format: cell-based; settings: Homo sapiens, HT-1080; HT1080, Soft tissue sarcoma; 72 hours, 37° C.
# Protocol: as §1, §2, §3
# [18] = system: murine P388 leukemia cells; assay: Antitumor Activity in mice bearing P388 leukemia (in vivo test); settings: BDF1 mice, 10 mg/kg intraperitoneally once a day, Day 1, 2, 5, 6
# Protocol: Antitumor Activity in mice bearing P388 leukemia (in vivo test)
# DBA/2 mice were intraperitoneally inoculated with murine P388 leukemia cells. On day 0, ascites was collected from the DBA/2 mice, and P388 leukemia cells were intraperitoneally implanted into BDF1 mice so that the number of the cells would be 1×10^6 /mouse. A sample was dissolved in dimethyl sulfoxide, and this sample solution was intraperitoneally administered to the mice once a day. The antitumor effect was evaluated by comparing the survival time of the administered group with that of the control group.
# The results of the test carried out by using the compound of the present invention (the beta-anomer of 2'-deoxy-2'-methylidene-4'-thiocytidine synthesized in Example 1) are shown in Table 2.
# [19] = system: murine S-180 cells; assay: Antitumor Activity in Mice Implanted with S-180 Cells (in vivo test); settings: ICR mice, caudal vein, days 1-5 and 7-10; for Weight of Tumor (mean value ± SE): tumor removed on day 35, control 8.70 ± 1.31; for Inhibitory Rate: tumor weight on day 35
# From the text: Antitumor Activity in Mice Implanted with S-180 Cells (in vivo test)
# ICR mice were intraperitoneally inoculated with murine S-180 cells. On day 0, ascites was collected from the ICR mice, and Sarcoma 180 cells were subcutaneously implanted into ICR mice so that the number of the cells would be 5×10^6 /mouse. A sample was suspended in Macrogol-400/Tween 80 (6:0.8) so that the concentration thereof would be 10 times the concentration at the time of the administration thereof. Thereafter, the suspension was diluted to 1/10 with physiological saline, and injected once a day into the caudal vein of the mice on days 1-5, and on days 7-10. The antitumor effect (inhibitory rate) was evaluated by measuring the weight of the tumor removed on day 35.
# The results of the test carried out by using the compound of the present invention (the beta-anomer of 2'-deoxy-2'-methylidene-4'-thiocytidine synthesized in Example 1) are shown in Table 3.
structure (smiles),measurement,setting,value
"C=C1[C@H](n2ccc(N)nc2=O)S[C@H](CO)[C@H]1O [Compound of the Invention, 2'-deoxy-2'-methylidene-4'-thiocytidine]",IC50,[1],0.6 µg/mL
same,IC50,[2],0.77 µg/mL
same,IC50,[3],0.06 µg/mL
same,IC50,[4],0.65 µg/mL
same,IC50,[5],2.4 µg/mL
same,IC50,[6],1.5 µg/mL
same,IC50,[7],0.075 µg/mL
same,IC50,[8],0.32 µg/mL
same,IC50,[9],0.5 µg/mL
same,IC50,[10],0.3 µg/mL
same,IC50,[11],0.38 µg/mL
same,IC50,[12],0.45 µg/mL
same,IC50,[13],0.53 µg/mL
same,IC50,[14],4.1 µg/mL
same,IC50,[15],0.25 µg/mL
same,IC50,[16],0.092 µg/mL
same,IC50,[17],0.21 µg/mL
same,MST (Median survival time),[18]; control (DMSO) 9.0 days,12.0 days
same,T/C,[18]; survival vs control (DMSO) = 100,133%
same,Weight of Tumor (mean value ± SE),[19]; 20 mg/kg/day,6.39 ± 1.07
same,Inhibitory Rate,[19]; 20 mg/kg/day,26.6%
same,Weight of Tumor (mean value ± SE),[19]; 100 mg/kg/day,0.80 ± 0.24
same,Inhibitory Rate,[19]; 100 mg/kg/day,90.8%
